One block for each compound: values may come before it. The source made the active and inactive calls. The rule behind the calls is not given here.
Experiments:
MKN-45 [1] = assay: Antiproliferative activity against human MKN45 cells after 3 days by CellTiter-Glo assay; type: functional, cell-based; settings: MKN-45, 72 h
Mus musculus [2] = assay: Toxicity in human MKN45 cells xenografted nu/nu CD1 mouse model assessed as body weigh loss at 200 mg/kg, po qd for 14 days; type: organism-based, MKN-45; parameters: dose 200 mg/kg, route oral; settings: in vivo, 336 h
Mus musculus [3] = assay: Toxicity in human MKN45 cells xenografted nu/nu CD1 mouse model assessed as body weigh loss at 100 mg/kg, po qd for 14 days; type: organism-based, MKN-45; parameters: dose 100 mg/kg, route oral; settings: in vivo, 336 h
Mus musculus [4] = assay: Toxicity in human MKN45 cells xenografted nu/nu CD1 mouse model assessed as body weigh loss at 50 mg/kg, po qd for 14 days; type: organism-based, MKN-45; parameters: dose 50 mg/kg, route oral; settings: in vivo, 336 h
Mus musculus [5] = assay: Toxicity in human MKN45 cells xenografted nu/nu CD1 mouse model assessed as body weigh loss at 25 mg/kg, po qd for 14 days; type: organism-based, MKN-45; parameters: dose 25 mg/kg, route oral; settings: in vivo, 336 h
MKN-45 [6] = assay: Antitumor activity against human MKN45 cells xenografted in nu/nu CD1 mouse model assessed as maximum tumor regression at 200 mg/kg, po qd for 14 days; type: functional
MKN-45 [7] = assay: Antitumor activity against human MKN45 cells xenografted in nu/nu CD1 mouse model assessed as maximum tumor regression at 100 mg/kg, po qd for 14 days; type: functional
MKN-45 [8] = assay: Antitumor activity against human MKN45 cells xenografted in nu/nu CD1 mouse model assessed as maximum tumor regression at 50 mg/kg, po qd for 14 days; type: functional
MKN-45 [9] = assay: Antitumor activity against human MKN45 cells xenografted in nu/nu CD1 mouse model assessed as maximum tumor regression at 25 mg/kg, po qd for 14 days; type: functional
MKN-45 [10] = assay: Antitumor activity against human MKN45 cells xenografted in nu/nu CD1 mouse model assessed as tumor growth inhibition at 200 mg/kg, po qd for 14 days; type: functional; settings: MKN-45, 336 h, read-out: TGI
MKN-45 [11] = assay: Antitumor activity against human MKN45 cells xenografted in nu/nu CD1 mouse model assessed as tumor growth inhibition at 100 mg/kg, po qd for 14 days; type: functional; settings: MKN-45, 336 h, read-out: TGI
MKN-45 [12] = assay: Antitumor activity against human MKN45 cells xenografted in nu/nu CD1 mouse model assessed as tumor growth inhibition at 50 mg/kg, po qd for 14 days; type: functional; settings: MKN-45, 336 h, read-out: TGI
MKN-45 [13] = assay: Antitumor activity against human MKN45 cells xenografted in nu/nu CD1 mouse model assessed as tumor growth inhibition at 25 mg/kg, po qd for 14 days; type: functional; settings: MKN-45, 336 h, read-out: TGI
[14] = Oral bioavailability in CD1 mouse at 20 mg/kg; type: ADME, organism-based; settings: in vivo
[15] = Cmax in CD1 mouse at 20 mg/kg, po; type: ADME, organism-based; parameters: dose 20 mg/kg, route oral; settings: in vivo
[16] = AUC (0 to last) in CD1 mouse at 20 mg/kg, po; type: ADME, organism-based; parameters: dose 20 mg/kg, route oral, time 0 - last; settings: plasma
Homo sapiens [17] = species on record: Homo sapiens; assay: Ratio of IC50 for cMET Y1230H mutant (unknown origin) to IC50 for wild type cMET (unknown origin)
Homo sapiens [18] = species on record: Homo sapiens; assay: Ratio of IC50 for cMET Y1230C mutant (unknown origin) to IC50 for wild type cMET (unknown origin)
Mus musculus [19] = assay: Inhibition of MET autophosphorylation at Y1349 in human MKN45 cells xenografted in mouse at 100 mg/kg, po up to 8 hrs; type: functional, organism-based; parameters: dose 100 mg/kg; settings: MKN-45
KARPAS-299 [20] = assay: Antitumor activity against human KARPAS299 xenograft model assessed as tumor growth inhibition up to 200 mg/kg qd; type: functional, organism-based; parameters: dose 200 mg/kg
[21] = biological target: Tyrosine-protein kinase ABL1 (Homo sapiens) (UniProt P00519); settings: 1 uM
Description: Inhibition of Abl (unknown origin) autophosphorylation at 1 uM

Homo sapiens [22] = species on record: Homo sapiens; settings: 1 uM
Description: Inhibition of aurora kinase (unknown origin) autophosphorylation at 1 uM

[23] = biological target: Tyrosine-protein kinase ABL2 (Homo sapiens) (UniProt P42684); settings: 1 uM
Description: Inhibition of ARG (unknown origin) autophosphorylation at 1 uM

[24] = biological target: Hepatocyte growth factor receptor (Homo sapiens, UniProt P08581); settings: 1 uM
Description: Inhibition of cMET (unknown origin) autophosphorylation at 1 uM

KARPAS-299 [25] = assay: Antitumor activity against human KARPAS299 xenograft model assessed as tumor growth inhibition at 50 mg/kg qd; type: functional; settings: read-out: TGI
Cytochrome P450 3A4 = Cytochrome P450 3A4 (Homo sapiens, UniProt P08684); assay: Inhibition of CP3A4 (unknown origin)
[26] = Permeability of the compound at pH 7.4 by PAMPA; type: ADME; settings: read-out: permeability
[27] = Half life in CD1 mouse at 2 mg/kg, iv; type: ADME, organism-based; parameters: dose 2 mg/kg, route intravenous; settings: in vivo
[28] = Volume of distribution at steady state in CD1 mouse at 2 mg/kg, iv; type: ADME, organism-based; parameters: dose 2 mg/kg, route intravenous; settings: in vivo, read-out: Vdss
[29] = Clearance in CD1 mouse at 2 mg/kg, iv; type: ADME, organism-based; parameters: dose 2 mg/kg, route intravenous; settings: in vivo

IC50 (MKN-45 [1]): 5100 nM
SMILES: CC(Oc1c(N)ncc2c(-c3cnn(C4CCNCC4)c3)coc12)c1cccc(F)c1Cl (racemic)

IC50 (MKN-45 [1]): 1600 nM
SMILES: COc1ccc(Cl)c([C@@H](C)Oc2c(N)ncc3c(-c4cnn(C5CCNCC5)c4)coc23)c1Cl

bioavailability [14]: 83% | Cmax [15]: 4800 nM | AUC(0-t) [16]: 5420 ng·h/mL
SMILES: CS(=O)(=O)O.C[C@@H](Oc1c(N)ncc2c(C3=CCN(C(N)=O)CC3)coc12)c1c(Cl)ccc(F)c1Cl
Activity (Mus musculus [2]): 3% | Activity (Mus musculus [3]): 3% | Activity (Mus musculus [4]): 2% | Activity (Mus musculus [5]): 6% | Activity (MKN-45 [6]): 49% | Activity (MKN-45 [7]): 27% | Activity (MKN-45 [8]): 0% | Activity (MKN-45 [9]): 0% | inhibition in vivo at 200 mg/kg (MKN-45 [10]): 100% | inhibition in vivo at 100 mg/kg (MKN-45 [11]): 100% | inhibition in vivo at 50 mg/kg (MKN-45 [12]): 51% | inhibition in vivo at 25 mg/kg (MKN-45 [13]): 13%

IC50 (MKN-45 [1]): 510 nM
SMILES: C[C@@H](Oc1c(N)ncc2c(C3=CCN(C(=O)N(C)C)CC3)coc12)c1c(Cl)ccc(F)c1Cl

IC50 (MKN-45 [1]): 510 nM
SMILES: CC(Oc1c(N)ncc2c(-c3cnn(C4CCNCC4)c3)coc12)c1c(Br)ccc(F)c1Cl (racemic)

IC50 (MKN-45 [1]): 3500 nM
SMILES: CNC(=O)c1coc2c(O[C@H](C)c3c(Cl)ccc(F)c3Cl)c(N)ncc12

Ratio IC50 (Homo sapiens [17]): 8 | Ratio IC50 (Homo sapiens [18]): > 600
SMILES: OCCn1cc(-c2cnc3nnn(Cc4ccc5ncccc5c4)c3n2)cn1

Ratio IC50 (Homo sapiens [18]): 3 | inhibition [21]: > 50% | inhibition (Homo sapiens [22]): > 50% | inhibition [23]: > 50% | inhibition [24]: > 50%
SMILES: C[C@@H](Oc1c(N)ncc2c(C3=CCN(C(N)=O)CC3)coc12)c1c(Cl)ccc(F)c1Cl
inhibition (Mus musculus [19]): Active | TGI (KARPAS-299 [20]): inactive

IC50 (MKN-45 [1]): 3100 nM
SMILES: C[C@@H](Oc1c(N)ncc2c(C3CCNCC3)coc12)c1c(Cl)ccc(F)c1Cl

Ratio IC50 (Homo sapiens [17]): 8 | Ratio IC50 (Homo sapiens [18]): > 600
SMILES: C[C@@H](Oc1cc(-c2cnn(C3CCNCC3)c2)cnc1N)c1c(Cl)ccc(F)c1Cl [CRIZOTINIB]
inhibition in vivo at 50 mg/kg (KARPAS-299 [25]): 96%

bioavailability [14]: 35% | Cmax [15]: 150 nM | AUC(0-t) [16]: 509 ng·h/mL
SMILES: C[C@@H](Oc1c(N)ncc2c(-c3cnn(C4CCNCC4)c3)coc12)c1c(Cl)ccc(F)c1Cl.Cl.Cl.Cl.Cl

IC50 (Cytochrome P450 3A4): 1600 nM | IC50 (MKN-45 [1]): 360 nM
SMILES: C#CCC(Oc1c(N)ncc2c(-c3cnn(C4CCNCC4)c3)coc12)c1c(Cl)ccc(F)c1Cl (racemic)

IC50 (MKN-45 [1]): 480 nM
SMILES: CC(Oc1c(N)ncc2c(-c3cnn(C4CCNCC4)c3)coc12)c1c(Cl)c(F)cc(F)c1Cl (racemic)

IC50 (MKN-45 [1]): 4500 nM
SMILES: C[C@H](Oc1c(N)ncc2c(-c3cnn(C4CCNCC4)c3)coc12)c1c(Cl)ccc(F)c1Cl

Papp [26]: 318 ×10⁻⁶ cm/s | IC50 (MKN-45 [1]): 670 nM
SMILES: CC(=O)N1CCC(n2cc(-c3coc4c(O[C@H](C)c5c(Cl)ccc(F)c5Cl)c(N)ncc34)cn2)CC1

IC50 (MKN-45 [1]): 4600 nM
SMILES: C[C@@H](Oc1c(N)ncc2c(-c3ccccn3)coc12)c1c(Cl)ccc(F)c1Cl

IC50 (MKN-45 [1]): 1300 nM
SMILES: CC(Oc1c(N)ncc2c(-c3cnn(C4CCNCC4)c3)coc12)c1c(Cl)ccc(Cl)c1Cl (racemic)

IC50 (MKN-45 [1]): 190 nM
SMILES: CNC(=O)N1CC=C(c2coc3c(O[C@H](C)c4c(Cl)ccc(F)c4Cl)c(N)ncc23)CC1

IC50 (MKN-45 [1]): 3600 nM
SMILES: CCC(Oc1c(N)ncc2c(-c3cnn(C4CCNCC4)c3)coc12)c1c(Cl)ccc(F)c1Cl (racemic)

half-life [27]: 36 min | Vd [28]: 12 L/kg | clearance [29]: 227 mL/min/kg | IC50 (MKN-45 [1]): 300 nM
SMILES: C[C@@H](Oc1c(N)ncc2c(-c3cnn(C4CCNCC4)c3)coc12)c1c(Cl)ccc(F)c1Cl

IC50 (Cytochrome P450 3A4): > 20000 nM | IC50 (MKN-45 [1]): 570 nM
SMILES: CC(Oc1c(N)ncc2c(-c3cnn(C4CCNCC4)c3)coc12)c1c(Cl)ccc(F)c1Cl (racemic)

IC50 (MKN-45 [1]): 3600 nM
SMILES: CC(Oc1c(N)ncc2c(-c3cnn(C4CCNCC4)c3)coc12)c1c(Cl)cc(Cl)cc1Cl (racemic)

IC50 (MKN-45 [1]): 6400 nM
SMILES: CC(Oc1c(N)ncc2c(-c3cnn(C4CCNCC4)c3)coc12)c1cc(F)ccc1Cl (racemic)

IC50 (MKN-45 [1]): 900 nM
SMILES: C[C@@H](Oc1c(N)ncc2c(-c3ccncc3)coc12)c1c(Cl)ccc(F)c1Cl

IC50 (MKN-45 [1]): 8600 nM
SMILES: Nc1ncc2c(-c3cnn(C4CCNCC4)c3)coc2c1OCc1c(Cl)ccc(F)c1Cl

Papp [26]: 199 ×10⁻⁶ cm/s | IC50 (MKN-45 [1]): 330 nM
SMILES: CC(=O)N1CC=C(c2coc3c(O[C@H](C)c4c(Cl)ccc(F)c4Cl)c(N)ncc23)CC1

IC50 (MKN-45 [1]): 11000 nM
SMILES: C[C@@H](Oc1c(N)ncc2c(-c3ccccc3)coc12)c1c(Cl)ccc(F)c1Cl

IC50 (MKN-45 [1]): 2000 nM
SMILES: CC(Oc1c(N)ncc2c(-c3cnn(C4CCNCC4)c3)coc12)c1c(Cl)cccc1Cl (racemic)

SMILES: C[C@@H](Oc1c(N)ncc2c(C3=CCNCC3)coc12)c1c(Cl)ccc(F)c1Cl
IC50 (MKN-45 [1]): 450 nM

IC50 (MKN-45 [1]): 2700 nM
SMILES: CCCC(Oc1c(N)ncc2c(-c3cnn(C4CCNCC4)c3)coc12)c1c(Cl)ccc(F)c1Cl (racemic)

IC50 (MKN-45 [1]): 2700 nM
SMILES: C[C@@H](Oc1c(N)ncc2c(-c3cccnc3)coc12)c1c(Cl)ccc(F)c1Cl

IC50 (MKN-45 [1]): 3300 nM
SMILES: C[C@@H](Oc1c(N)ncc2c(-c3cn[nH]c3)coc12)c1c(Cl)ccc(F)c1Cl

IC50 (MKN-45 [1]): 850 nM
SMILES: COC(=O)N1CC=C(c2coc3c(O[C@H](C)c4c(Cl)ccc(F)c4Cl)c(N)ncc23)CC1

— ChEMBL document CHEMBL2401646 (Bioorg Med Chem Lett, 2013)
